Source: patent US20190048052A1, “ANTI-MICROBIAL PEPTIDES AND COATINGS” (Board of Regents of the University of Nebraska, priority 2016, published 2019)
Residues, ends and D or L forms follow the SMILES beside them.

Tests used:
[1] = tested on: S. aureus USA300; experiment: FITC entry into live bacteria, confocal microscopy; assay type: cell-based, Staphylococcus aureus; conditions: peptide and FITC 9 μM
Protocol: The entrance of a fluorescent dye into live bacterial cells was also followed by confocal microscopy (Mishra et al. (2015) RSC Advances 5:59758-59769). In brief, S. aureus USA300 was grown to the exponential phase from the overnight culture. The cells were then washed twice with fresh 1×PBS (pH 7.2) and the final cell density was adjusted to 1×10^8 CFU/mL. 1500 μL of the culture was added to the chambers of cuvettes (borosilicate cover glass systems; Nunc Cat. No. 155380) with equimolar concentrations of TetraF2W-RK and fluorescein isothiocyanate FITC (9 μM). The samples were examined with a confocal laser scanning microscope (Zeiss 710) with live time series of picture taken every 5 seconds for 5 minutes and the data were processed using Zen 2010 software.

[2] = target: T1, S. aureus V8 protease (Staphylococcus aureus, UniProt P0C1U8); assay type: in vitro ADME; conditions: peptide:protease 40:1, 24 hours, 37° C.
T1 construct: purchased Sigma or Fisher
T1 sequence (P0C1U8 69-336): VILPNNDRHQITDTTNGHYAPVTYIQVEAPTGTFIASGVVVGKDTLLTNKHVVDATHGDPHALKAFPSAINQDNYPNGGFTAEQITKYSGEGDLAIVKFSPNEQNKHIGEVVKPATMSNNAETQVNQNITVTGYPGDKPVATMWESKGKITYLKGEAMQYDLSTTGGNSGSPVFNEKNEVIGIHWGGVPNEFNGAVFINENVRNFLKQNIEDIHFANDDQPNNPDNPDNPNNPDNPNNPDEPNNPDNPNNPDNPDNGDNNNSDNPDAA
Protocol: When degraded, no peptide band could be detected on a 5% stacking/18% resolving tricine gel after 2-4 hours incubation at 37° C. Briefly, a solution (100 μL) containing 250 μM peptide and 6.25 μM protease (Sigma or Fisher) in 10 mM PBS buffer (pH 8) was incubated at 37° C. (peptide/protease molar ratio, 40:1). Aliquots (10 μL) of the reaction solutions were taken at 0, 6, and 24 hours and immediately mixed with 10 μL of 2× SDS loading buffer followed by boiling for 5 minutes to stop the reaction. […] After electrophoresis, the gel was stained by Brilliant Blue R-250 (Fisher) and destained to view the peptide bands.

[3] = tested on: S. aureus USA300; experiment: Live cell penetration experiment (FITC, confocal); assay type: cell-based, Staphylococcus aureus; conditions: peptide and FITC 12.5 μM
Protocol: The entrance of a fluorescent dye into live bacterial cells was followed by confocal microscopy (Mishra et al. (2015) RSC Advances 5:59758-59769). In short, S. aureus USA300 was grown to the exponential phase from the overnight culture. The cells were then washed twice with fresh 1×PBS (pH 7.2) and the final cell density was adjusted to 1×10^8 CFU/mL. 1500 μL of the culture was added to the chambers of cuvettes (borosilicate cover glass systems) with equimolar concentrations of TetraF2W-RK and fluorescein isothiocyanate FITC (12.5 μM). The samples were examined with a confocal laser scanning microscope (Zeiss 710) with a series of live time pictures taken at every 5 seconds for 5 minutes and the data were processed using Zen 2010 software.

[4] = tested on: S. aureus USA300; experiment: Preformed biofilm disruption (XTT); assay type: cell-based, Staphylococcus aureus; conditions: 25 μM, 24 hour preformed biofilms
Protocol: Three types of experiments were conducted to evaluate the anti-biofilm activity of these peptides against S. aureus USA300, which was grown in tryptic soy broth (TSB) media in flat bottom, 96-well, polystyrene microtiter plates (Mishra et al. (2015) RSC Advances 5:59758-59769; Dean et al. (2011) BMC Microbiol., 11:114).
The third experiment evaluates the ability of the peptide to disrupt the biofilms of S. aureus USA300 formed in 24 hours. S. aureus USA300 (10^5 CFU/mL) in fresh TSB media was made from an exponentially growing culture. 200 μL of this bacterial culture was added to each well of the microtiter plates. The plates are then incubated at 37° C. for 24 hours to allow biofilm formation. Media was then carefully removed followed by washing with sterile 1×PBS to remove any unattached bacteria. Solution containing 20 μL of 10× peptide solution and 180 μL of fresh TSB were added. The plates were again incubated at 37° C. for another 24 hours. The extent of peptide disruption of biofilms was quantified using the same XTT method described above.

[5] = tested on: S. aureus USA300; experiment: Propidium iodide membrane permeation (Example 3); assay type: cell-based, Staphylococcus aureus; conditions: 3.1 μM
Protocol: FIGS. 15A and 15B show the growth inhibition (FIG. 15A) and propidium iodide-based membrane permeation (FIG. 15B) of S. aureus USA300 in TSB media by 3.1 μM of TetraF2W-RR and its single arginine variants (Table 8) at 37° C. with shaking at 100 rpm.
Fluorescence spectroscopy was also used to follow bacterial killing. In brief, μL of serially diluted 10× peptide concentrations were done in 96-well coming COSTAR microtiter plates. Propidium iodide at a fixed concentration of 20 μM per well was added to each well which was finally incubated with 88 μL of S. aureus USA300 (with a final OD600 0.1) with continuous shaking at 100 rpm with meander corner well shaking, 37° C. in a FLUOstar® Omega (BMG LABTECH Inc., NC) microplate reader. The plates were read every 5 minutes for a total duration of 2 hours with excitation and emission wavelengths at 584 nm and 620 nm, respectively.

[6] = tested on: S. aureus USA300; assay type: cell-based, Staphylococcus aureus
In short: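 USA300 (10^5 CFU/mL) biofilms grown statically in TSB for 24 h at 37° C, washed, then exposed to peptide in fresh TSB for another 24 h at 37° C. Residual biomass read by crystal violet staining at 600 nm; viable cells by 10% XTT, 2 h at 37° C, absorbance 450 nm. Biofilm reduction expressed as percent of untreated wells.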

SMILES | time for FITC to enter the majority of cells [1] | stability to S. aureus V8 protease [2] | time to entry of FITC into bacteria after peptide treatment [3] | disruption of preformed biofilms [4] | membrane permeation by propidium iodide [5] | killing in preformed biofilms (XTT) ([6]; 6.2 μM) | killing in preformed biofilms (XTT), words ([6]; 12.5 μM)
CC[C@H](C)[C@H](NC(=O)[C@H](CCCCN)NC(=O)[C@H](CCCNC(=N)N)NC(=O)[C@H](CC(C)C)NC(=O)[C@H](Cc1c[nH]c2ccccc12)NC(=O)[C@H](Cc1c[nH]c2ccccc12)NC(=O)[C@@H](N)Cc1c[nH]c2ccccc12)C(=O)N[C@@H](Cc1c[nH]c2ccccc12)C(N)=O [TetraF2W-RK, WWWLRKIW] (H-WWWLRKIW-NH2; N-terminus assumed) | 30 s | not cut | 30 s |  |  |  | 
CC[C@H](C)[C@H](NC(=O)[C@H](CCCNC(=N)N)NC(=O)[C@H](CCCNC(=N)N)NC(=O)[C@H](CC(C)C)NC(=O)[C@H](Cc1c[nH]c2ccccc12)NC(=O)[C@H](Cc1c[nH]c2ccccc12)NC(=O)[C@@H](N)Cc1c[nH]c2ccccc12)C(=O)N[C@@H](Cc1c[nH]c2ccccc12)C(N)=O [TetraF2W-RR, WWWLRRIW] (H-WWWLRRIW-NH2; N-terminus assumed) |  |  |  | ~77% | most potent | only the WT was active | nearly all S. aureus USA300 was eliminated
